Results taken from patent US20220281848A1, “PYRAZOLE-SUBSTITUTED PYRROLIDINONES AS HERBICIDES” (FMC Corporation, priority 2019, published 2022).

Assays:
Format in all cases: in vivo
[1] = system: ivy-leaved morning glory (Ipomoea hederacea, IPOHE); experiment: Test A pre-emergence, ivy-leaved morning glory; settings: after 13 d
Procedure, shortened: (§1)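 After sowing in pots and a single day of glasshouse cultivation, the soil was treated with an aqueous spray of the compound (acetone/water 50:50, 0.5% Tween 20) giving 15.625, 62.5 or 250 g/ha. Evaluation after 13 d used a scale where 0 meant no damage and 100 total damage.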

[2] = system: redroot pigweed (Amaranthus retroflexus, AMARE); experiment: Test A post-emergence, redroot pigweed; settings: after 13 d
Procedure, shortened: (§2)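 Foliar application to 8-day-old seedlings at 15.625, 62.5 or 250 g/ha; phytotoxicity scored 0–100 after 13 d.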

[3] = system: redroot pigweed (Amaranthus retroflexus, AMARE); experiment: Test A pre-emergence, redroot pigweed; settings: after 13 d
Procedure, shortened: as §1

[4] = system: velvetleaf (Abutilon theophrasti, ABUTH); experiment: Test A post-emergence, velvetleaf; settings: after 13 d
Procedure, shortened: as §2

plants = experiment: Test D post-emergence, other plants of Tables D2 and D4; settings: "Cereals" Postemergent, evaluated after 15 d
Description: A formulation containing 50 g/L of the test chemical was prepared by dissolving the active ingredient in a mixture of organic solvents and emulsifier, details of which are provided in the table. This formulation was then mixed with a small, variable amount of acetone to aid dissolution, before addition of a 0.2% v/v aqueous solution of an adjuvant, as the aqueous diluent, to form an aqueous spray solution which contains a predetermined concentration of the active ingredient.
This aqueous spray solution was then sprayed onto plants including maize and wheat that had been seed treated with a herbicide safener, after one day's cultivation (for pre-emergence) or after about 12 days' cultivation (for post-emergence). The plants were grown from seeds sown in standard soil, placed in a glasshouse under controlled conditions (at 24/18° C. or 20/16° C., day/night; 16 h light; 65% humidity). After spray application the plants were then grown in a glasshouse under the same conditions and watered twice daily. After 15 d for post-emergence and 20 DAA for pre-emergence the test was evaluated (100=total damage to plant; 0=no damage to plant).

Structure (SMILES): CN1CC(c2cc(C(F)(F)F)n(C)n2)C(C(=O)Nc2cccc(F)c2F)C1=O (racemic) [Compound 3]
- damage to plant (100=total damage; 0=no damage) IPOHE ([1]; Pre-Emergence at 15.625 g/ha): 0
- damage to plant (100=total damage; 0=no damage) IPOHE ([1]; Pre-Emergence at 62.5 g/ha): 0
- damage to plant (100=total damage; 0=no damage) IPOHE ([1]; Pre-Emergence at 250 g/ha): 30
- damage to plant (100=total damage; 0=no damage) AMARE ([2]; Post-Emergence at 15.625 g/ha): 0
- damage to plant (100=total damage; 0=no damage) AMARE ([2]; Post-Emergence at 62.5 g/ha): 10
- damage to plant (100=total damage; 0=no damage) AMARE ([2]; Post-Emergence at 250 g/ha): 20
- damage to plant (100=total damage; 0=no damage) AMARE ([3]; Pre-Emergence at 15.625 g/ha): 20
- damage to plant (100=total damage; 0=no damage) AMARE ([3]; Pre-Emergence at 62.5 g/ha): 20
- damage to plant (100=total damage; 0=no damage) AMARE ([3]; Pre-Emergence at 250 g/ha): 70
- damage to plant (100=total damage; 0=no damage) ABUTH ([4]; Post-Emergence at 15.625 g/ha): 0
- damage to plant (100=total damage; 0=no damage) ABUTH ([4]; Post-Emergence at 62.5 g/ha): 0
- damage to plant (100=total damage; 0=no damage) ABUTH ([4]; Post-Emergence at 250 g/ha): 0
- ALOMY damage rating (100=total damage to plant; 0=no damage to plant) (plants; Rates 130): 0
- ALOMY damage rating (100=total damage to plant; 0=no damage to plant) (plants; Rates 250): 0
- ALOMY damage rating (100=total damage to plant; 0=no damage to plant) (plants; Rates 500): 20
- AVEFA damage rating (100=total damage to plant; 0=no damage to plant) (plants; Rates 130): 0
- AVEFA damage rating (100=total damage to plant; 0=no damage to plant) (plants; Rates 250): 0
- AVEFA damage rating (100=total damage to plant; 0=no damage to plant) (plants; Rates 500): 30
- BEAVA damage rating (100=total damage to plant; 0=no damage to plant) (plants; Rates 130): 0
- BEAVA damage rating (100=total damage to plant; 0=no damage to plant) (plants; Rates 250): 10
- BEAVA damage rating (100=total damage to plant; 0=no damage to plant) (plants; Rates 500): 10
- BROTE damage rating (100=total damage to plant; 0=no damage to plant) (plants; Rates 130): 0
- BROTE damage rating (100=total damage to plant; 0=no damage to plant) (plants; Rates 250): 0
- BROTE damage rating (100=total damage to plant; 0=no damage to plant) (plants; Rates 500): 0
- BRSNN damage rating (100=total damage to plant; 0=no damage to plant) (plants; Rates 130): 10
- BRSNN damage rating (100=total damage to plant; 0=no damage to plant) (plants; Rates 250): 10
- BRSNN damage rating (100=total damage to plant; 0=no damage to plant) (plants; Rates 500): 0
- CHEAL damage rating (100=total damage to plant; 0=no damage to plant) (plants; Rates 130): 0
- CHEAL damage rating (100=total damage to plant; 0=no damage to plant) (plants; Rates 250): 0
- CHEAL damage rating (100=total damage to plant; 0=no damage to plant) (plants; Rates 500): 0
- GALAP damage rating (100=total damage to plant; 0=no damage to plant) (plants; Rates 130): 0
- GALAP damage rating (100=total damage to plant; 0=no damage to plant) (plants; Rates 250): 0
- GALAP damage rating (100=total damage to plant; 0=no damage to plant) (plants; Rates 500): 0
- HORVW damage rating (100=total damage to plant; 0=no damage to plant) (plants; Rates 130): 0
- HORVW damage rating (100=total damage to plant; 0=no damage to plant) (plants; Rates 250): 0
- HORVW damage rating (100=total damage to plant; 0=no damage to plant) (plants; Rates 500): 30
- KCHSC damage rating (100=total damage to plant; 0=no damage to plant) (plants; Rates 130): 0
- KCHSC damage rating (100=total damage to plant; 0=no damage to plant) (plants; Rates 250): 0
- KCHSC damage rating (100=total damage to plant; 0=no damage to plant) (plants; Rates 500): 0
- LOLPE damage rating (100=total damage to plant; 0=no damage to plant) (plants; Rates 130): 0
- LOLPE damage rating (100=total damage to plant; 0=no damage to plant) (plants; Rates 250): 0
- LOLPE damage rating (100=total damage to plant; 0=no damage to plant) (plants; Rates 500): 0
- POAAN damage rating (100=total damage to plant; 0=no damage to plant) (plants; Rates 130): 0
- POAAN damage rating (100=total damage to plant; 0=no damage to plant) (plants; Rates 250): 20
- POAAN damage rating (100=total damage to plant; 0=no damage to plant) (plants; Rates 500): 50
- POLCO damage rating (100=total damage to plant; 0=no damage to plant) (plants; Rates 130): 0
- POLCO damage rating (100=total damage to plant; 0=no damage to plant) (plants; Rates 250): 0
- POLCO damage rating (100=total damage to plant; 0=no damage to plant) (plants; Rates 500): 0
- SINAR damage rating (100=total damage to plant; 0=no damage to plant) (plants; Rates 130): 0
- SINAR damage rating (100=total damage to plant; 0=no damage to plant) (plants; Rates 250): 0
- SINAR damage rating (100=total damage to plant; 0=no damage to plant) (plants; Rates 500): 10
- STEME damage rating (100=total damage to plant; 0=no damage to plant) (plants; STEME, Rates 130): 0
